In patent US7125671B2, “Nucleic acid amplification with terminal-phosphate labeled nucleotides” (GE Healthcare Bio-Sciences Corp., priority 2003, dated 2006):

How the values were obtained:
T. ba polymerase = assay: PCR amplification with terminal-phosphate labeled nucleoside polyphosphates in the presence of stabilizing additives (FIG. 6); assay type: biochemical, Thermococcus barosii; details: 10–25 mM salt; dA4P-Me, dT4P-Me, dC4P-Me, dG4P-FlEt; 0.25 mM MnCl2; M13 DNA; 35 cycles
Procedure: Polymerase chain reaction (PCR) mixtures (20 μl) contained 25 mM Hepes (pH 8.1), 10 mM KCl, 2 mM MgSO4, 0.25 mM MnCl2, 1 mg/ml bovine serum albumin, 0.01% (v/v) Tween-20 and 10–25 mM salt as shown in FIG. 6. Each sample also contained 20 μm each of dA4P-Me, dT4P-Me, dC4P-Me, 200 μm dG4P-FlEt, 0.006 units/μl BAP, 2 units of T. ba polymerase, 0.1 μm −40 M13 forward primer, 0.1 μm −28 M13 reverse primer and 0.2 ng M13 DNA. In addition to the terminal-phosphate labeled nucleotide, terminal methyl-blocked dNTP's were used instead of normal dNTP's to prevent degradation by BAP (phosphatase). Latter is required for signal generation from dye-polyphosphate after the nucleotide is incorporated into DNA by polymerase. Reactions were carried out for 35 thermal cycles of 90° C., 30 sec.; 55° C., 30 sec.; and 65° C., 300 sec. Reaction products were loaded onto 1.6% agarose gels. The gels were stained with SYBR Gold (Molecular Probes) according to the manufacturers' instructions and scanned at 532 nm using a Typhoon fluorescence scanner (Amersham Biosciences). Gel size markers were a 100 bp ladder (Amersham Biosciences).

pUCp53 DNA = assay: PCR with additional nucleotides (FIG. 2); assay type: biochemical; details: labeled nucleotide replaces the normal dNTP; 0.2 mM MnCl2; primers P53SNP22C-51F and P53SNP22G131R
Procedure: (§1) Polymerase chain reaction (PCR) mixtures (20 μl) contained 20 mM Tris-HCL (pH 8.75), 10 mM KCL, 10 mM (NH4)2SO4, 2 mM MgSO4, 1 mg/ml bovine serum albumin and 0.1% (v/v) Triton X-100. The final nucleotide concentrations were 20 μM each, and 2.5 units of the DNA polymerase were used for each reaction. The initial template DNA (1–5 ng) was either pUC18 or pUCp53 (Amersham Biosciences). The initial amount of primer was 2 μmol each, and 2.5 units of the indicated DNA polymerase was used. Reactions were carried out for 15 thermal cycles of 90° C., 30 sec.; 55° C., 60 sec.; and 72° C., 300 sec. Most PCR reactions also included MnCl2 at a final concentration of 0.08–0.2 mM. Reaction products were loaded onto 1.6% agarose gels. The gels were stained with SYBR Gold (Molecular Probes) according to the manufacturers' instructions and scanned at 532 nm using a Typhoon fluorescence scanner (Amersham Biosciences). Gel size markers were a 100 bp ladder (Amersham Biosciences).
(§2) For both figures, the amplification reaction loaded in lane 1 was performed with normal dNTPs and without MnCl2. For the lanes marked 2, the dTTP was replaced by dT4P-DDAO and the reactions contained 0.2 mM MnCl2. For the lanes marked 3, the dGTP was replaced by dG4P-DDAO, and for the lanes marked 4, the dGTP was replaced by dG4P-MeCoumarin again with 0.2 mM MnCl2.

pUC18 DNA = assay: PCR with additional nucleotides, template and primers (FIG. 3); assay type: biochemical; details: labeled nucleotide replaces the normal dNTP; 0.2 mM MnCl2; −21 Forward and −28 Reverse primers
Procedure: as §1, §2

Tba exo-DNA polymerase = assay: PCR amplification of pUCp53 target with terminal-phosphate labeled nucleotide, gel and fluorescence detection; assay type: biochemical, Thermococcus barosii
Procedure: as §1
The DNA polymerases used for these experiments included Taq DNA polymerase, Thermo Sequenase DNA polymerase (Amersham Biosciences), Tba exo-DNA polymerase (from Thermococcus barosii, U.S. Pat. No. 5,602,011 with D141A and E143A amino acid substitutions U.S. Pat. No. 5,882,904), Pfu DNA polymerase (Strategene), KOD XL DNA polymerase (Novagen) and Deep Vent DNA polymerase (New England BioLabs).
For this experiment, either Taq DNA polymerase (lanes 1–3, 12), Thermo Sequenase (Amersham Biosciences) DNA polymerase (lanes 7–9, 11) or Tba exo-DNA polymerase (lanes 4–6, 10) were used. The MnCl2 concentration was 0 mM for the reactions resolved in lanes 1, 4, 7 and 10–12; 0.2 mM in lanes 2, 5, and 8; 0.4 mM in lanes 3, 6 and 9. For all samples, the template DNA was pUCp53 and the primers were P53SNP22C-51F and P53SNP22G131R. […]
(§3) Then the fluorescence was determined using a FarCYte fluorescence plate reader (Amersham Biosciences) using 650 nm excitation and 670 nm emission. […] The reaction product of Tba exo-DNA polymerase gave a reading of 31,000 fluorescence units.

Taq DNA polymerase = Taq DNA polymerase (Thermus aquaticus, UniProt P19821); assay: as above; assay type: biochemical; details: lane 2 of FIG. 1, 0.2 mM MnCl2
Procedure: Polymerase chain reaction (PCR) mixtures (20 μl) contained 20 mM Tris-HCL (pH 8.75), 10 mM KCL, 10 mM (NH4)2SO4, 2 mM MgSO4, 1 mg/ml bovine serum albumin and 0.1% (v/v) Triton X-100. The final nucleotide concentrations were 20 μM each, and 2.5 units of the DNA polymerase were used for each reaction. The initial template DNA (1–5 ng) was either pUC18 or pUCp53 (Amersham Biosciences). The initial amount of primer was 2 μmol each, and 2.5 units of the indicated DNA polymerase was used. Reactions were carried out for 15 thermal cycles of 90° C., 30 sec.; 55° C., 60 sec.; and 72° C., 300 sec. Most PCR reactions also included MnCl2 at a final concentration of 0.08–0.2 mM. Reaction products were loaded onto 1.6% agarose gels. The gels were stained with SYBR Gold (Molecular Probes) according to the manufacturers' instructions and scanned at 532 nm using a Typhoon fluorescence scanner (Amersham Biosciences). Gel size markers were a 100 bp ladder (Amersham Biosciences). […]
as §3

KOD XL DNA polymerase = assay: PCR amplification of pUCp53 target with terminal-phosphate labeled nucleotide; assay type: biochemical; details: same conditions as FIG. 1, DDAO-dT4P replaced dTTP
Procedure: as §1
(§4) The DNA polymerases used for these experiments included Taq DNA polymerase, Thermo Sequenase DNA polymerase (Amersham Biosciences), Tba exo-DNA polymerase (from Thermococcus barosii, U.S. Pat. No. 5,602,011 with D141A and E143A amino acid substitutions U.S. Pat. No. 5,882,904), Pfu DNA polymerase (Strategene), KOD XL DNA polymerase (Novagen) and Deep Vent DNA polymerase (New England BioLabs). […]

Pfu DNA polymerase = target: T1, Pfu DNA polymerase (Pyrococcus furiosus, UniProt P61875); assay: as above; assay type: biochemical; details: same conditions as FIG. 1, DDAO-dT4P replaced dTTP
T1 construct: purchased Strategene (so in the source); Stratagene)
T1 sequence (P61875 1-775): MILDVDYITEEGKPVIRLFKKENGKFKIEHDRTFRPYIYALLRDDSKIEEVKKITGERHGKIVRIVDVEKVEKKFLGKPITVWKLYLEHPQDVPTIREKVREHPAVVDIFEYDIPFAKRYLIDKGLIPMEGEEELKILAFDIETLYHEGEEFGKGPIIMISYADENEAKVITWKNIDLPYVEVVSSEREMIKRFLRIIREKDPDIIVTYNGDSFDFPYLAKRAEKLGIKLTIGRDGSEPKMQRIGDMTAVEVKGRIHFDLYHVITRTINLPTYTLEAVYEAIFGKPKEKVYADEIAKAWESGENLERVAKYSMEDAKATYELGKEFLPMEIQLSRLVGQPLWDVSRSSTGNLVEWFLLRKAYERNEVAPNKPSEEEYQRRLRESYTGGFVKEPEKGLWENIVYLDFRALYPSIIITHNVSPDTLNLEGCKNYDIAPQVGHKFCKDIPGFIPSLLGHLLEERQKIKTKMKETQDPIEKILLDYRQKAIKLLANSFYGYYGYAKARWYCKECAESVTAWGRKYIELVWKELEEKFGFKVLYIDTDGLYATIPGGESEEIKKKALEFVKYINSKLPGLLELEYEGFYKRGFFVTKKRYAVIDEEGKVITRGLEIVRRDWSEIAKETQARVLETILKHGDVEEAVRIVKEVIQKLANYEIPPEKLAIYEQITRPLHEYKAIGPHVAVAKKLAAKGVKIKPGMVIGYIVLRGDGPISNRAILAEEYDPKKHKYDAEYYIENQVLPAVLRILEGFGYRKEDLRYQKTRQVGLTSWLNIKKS
Procedure: as §1, §4

Phi29 DNA polymerase = target: T2, Phi29 DNA polymerase (Bacillus phage phi29, UniProt P03680); assay: Rolling circle amplification of salmon sperm chromosomal DNA with terminal-phosphate labeled/blocked nucleoside polyphosphates; assay type: biochemical; details: 50 μm dT4P-DDAO with dA4P-Me, dG4P-Me, dC4P-Me, BAP, 30° C.
T2 sequence (P03680 1-575): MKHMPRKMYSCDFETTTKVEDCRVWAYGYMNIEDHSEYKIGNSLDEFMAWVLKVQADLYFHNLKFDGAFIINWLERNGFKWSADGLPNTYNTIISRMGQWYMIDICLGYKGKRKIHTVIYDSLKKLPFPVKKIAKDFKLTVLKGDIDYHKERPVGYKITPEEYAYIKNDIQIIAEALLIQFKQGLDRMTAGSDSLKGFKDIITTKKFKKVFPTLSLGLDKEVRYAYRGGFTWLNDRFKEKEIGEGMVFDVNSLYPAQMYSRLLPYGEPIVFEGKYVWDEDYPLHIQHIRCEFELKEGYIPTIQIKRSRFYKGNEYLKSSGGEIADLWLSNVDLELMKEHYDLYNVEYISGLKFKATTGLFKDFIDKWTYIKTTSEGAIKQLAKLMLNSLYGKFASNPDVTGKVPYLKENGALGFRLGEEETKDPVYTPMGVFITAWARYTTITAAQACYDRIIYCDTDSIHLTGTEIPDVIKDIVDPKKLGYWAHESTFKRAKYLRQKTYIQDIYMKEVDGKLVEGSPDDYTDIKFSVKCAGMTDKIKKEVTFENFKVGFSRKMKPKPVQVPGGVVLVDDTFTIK
Procedure: Varying amounts of denatured salmon sperm chromosomal DNA was taken in 25 mM Tris: borate buffer, pH 8.0, containing 5 mM ammonium sulfate, 75 mM NaCl, 5 mM MgCl2, 1 mM MnSO4, 0.01% Tween-20, 400 ng Phi29 DNA polymerase, 40 μm nuclease resistant random hexamers, 0.03 units of BAP and 50 μm each of dA4P-Me, dG4P-Me, dC4P-Me and dT4P-DDAO. Reactions were incubated at 30° C. in a Tecan fluorescent plate reader and were read every five minutes at excitation and emission wavelengths optimized for DDAO. Raw fluorescence counts are plotted as a function of time.

[1] = Non-enzymatic hydrolysis of dT4P-DDAO in the presence of MnCl2, effect of other salts (FIG. 5); details: 10 or 25 mM salt; 0.5 mM MnCl2; 25 mM Hepes pH 8.1; 95° C. for 60 minutes
Procedure: Twenty μl of 25 mM Hepes, pH 8.1, containing 0.5 mM MnCl2, 1 μm dT4P-DDAO and 10 or 25 mM inorganic or organic salt (see FIG. 5) was heated at 95° C. for 60 minutes. 4 μl of each sample was treated with BAP as described above and read on Tecan ultra plate reader. An unheated sample with MnCl2 (water lane) and a heated sample without Hepes and MnCl2 were used as controls. Fluorescence counts were converted into % degradation as described above.

Taq DNA polymerase, sequence (P19821 whole entry): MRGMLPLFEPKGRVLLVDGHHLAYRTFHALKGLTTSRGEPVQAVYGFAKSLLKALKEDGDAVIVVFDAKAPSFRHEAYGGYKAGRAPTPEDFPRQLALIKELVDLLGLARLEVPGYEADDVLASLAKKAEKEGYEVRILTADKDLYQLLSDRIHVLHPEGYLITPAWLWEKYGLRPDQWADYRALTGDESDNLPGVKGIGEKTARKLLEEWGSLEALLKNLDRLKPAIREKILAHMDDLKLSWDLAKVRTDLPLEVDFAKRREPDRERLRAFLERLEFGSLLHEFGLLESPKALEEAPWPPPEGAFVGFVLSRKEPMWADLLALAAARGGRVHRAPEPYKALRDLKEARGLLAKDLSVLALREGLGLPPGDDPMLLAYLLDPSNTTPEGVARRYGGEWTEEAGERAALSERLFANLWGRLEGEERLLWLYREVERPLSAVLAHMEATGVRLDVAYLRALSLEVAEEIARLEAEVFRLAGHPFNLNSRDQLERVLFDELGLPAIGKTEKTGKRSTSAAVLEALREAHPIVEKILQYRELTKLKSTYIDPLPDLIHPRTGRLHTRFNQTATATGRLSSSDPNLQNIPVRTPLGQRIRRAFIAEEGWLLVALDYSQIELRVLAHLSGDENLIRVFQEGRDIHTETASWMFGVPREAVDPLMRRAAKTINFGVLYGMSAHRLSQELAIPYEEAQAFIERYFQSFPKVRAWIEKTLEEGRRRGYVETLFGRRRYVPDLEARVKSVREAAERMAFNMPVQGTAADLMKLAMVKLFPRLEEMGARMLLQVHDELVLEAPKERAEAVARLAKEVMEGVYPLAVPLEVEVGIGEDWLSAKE

[Na+].[Na+].[O]=[W](=[O])([O-])[O-] [sodium tungstate]
PCR product formation in the presence of the additive (T. ba polymerase): PCR product was separated

sodium vanadate
PCR product formation in the presence of the additive (T. ba polymerase): No product formed

Cc1cc(=O)oc2cc(OP(=O)(O)OP(=O)(O)OP(=O)(O)OP(=O)(O)OC[C@H]3O[C@@H](n4cnc5c(=O)[nH]c(N)nc54)C[C@@H]3O)ccc12 [dG4P-MeCoumarin, 2′-Deoxyguanosine-5′-(δ-7-(4-methylumbelliferone)) tetraphosphate]
PCR amplification product on gel (pUCp53 DNA): successfully produced product of the expected size | PCR amplification product on gel (pUC18 DNA): successfully produced product of the expected size

CC1(C)C2=C(Cl)C(=O)C(Cl)=CC2=Nc2ccc(OP(=O)(O)OP(=O)(O)OP(=O)(O)OP(=O)(O)OC[C@H]3OC(n4cnc5c(=O)[nH]c(N)nc54)CC3O)cc21 (stereo partly drawn) [dG4P-DDAO, δ-9H(1,3-dichloro-9,9-dimethylacridin-2-one-7-yl)-deoxyguanosine-5′-tetraphosphate]
PCR amplification product on gel (pUCp53 DNA): successfully produced product of the expected size | PCR amplification product on gel (pUC18 DNA): successfully produced product of the expected size

Cc1cn([C@H]2CC(O)[C@@H](COP(=O)(O)OP(=O)(O)OP(=O)(O)OP(=O)(O)Oc3ccc4c(c3)C(C)(C)C3=C(Cl)C(=O)C(Cl)=CC3=N4)O2)c(=O)[nH]c1=O (stereo partly drawn) [dT4P-DDAO, δ-9H(1,3-dichloro-9,9-dimethylacridin-2-one-7-yl)-deoxythymidine-5′-tetraphosphate]
increase of PCR yield in the presence of MnCl2 (Tba exo-DNA polymerase; 0.2–0.4 mM MnCl2 versus 0 mM, DDAO-dT4P replaced dTTP): at least 5 fold | PCR product on agarose gel (Tba exo-DNA polymerase; DDAO-dT4P replaced dTTP, pUCp53 template, 15 thermal cycles, FIG. 1): significant amounts of PCR product were made | fluorescence reading of PCR reaction product after shrimp alkaline phosphatase (Tba exo-DNA polymerase; lane 5 of FIG. 1, 0.2 mM MnCl2, 650 nm excitation, 670 nm emission): 31,000 fluorescence units | PCR product (Taq DNA polymerase; DDAO-dT4P replaced dTTP): little or no detectable PCR product | fluorescence reading of PCR reaction product after shrimp alkaline phosphatase (Taq DNA polymerase; 650 nm excitation, 670 nm emission): 5500 fluorescence units | PCR product (KOD XL DNA polymerase): PCR product is made | PCR product (Pfu DNA polymerase): PCR product is made | PCR amplification product on gel (pUCp53 DNA): successfully produced product of the expected size | PCR amplification product on gel (pUC18 DNA): successfully produced product of the expected size | rate of product formation (slope 20–40 minutes) versus amount of input DNA (Phi29 DNA polymerase; FIG. 10): linear correlation | fluorescence signal (Phi29 DNA polymerase; absence of input DNA, FIG. 9): no signal is produced

O=C(O)CP(=O)(O)O [phosphonoacetate]
stabilization of dT4P-DDAO (% degradation) [1]: stabilize the nucleotide | PCR product formation in the presence of the additive (T. ba polymerase): No product formed

[Na+].[Na+].[O]=[Mo](=[O])([O-])[O-] [sodium molybdate]
PCR product formation in the presence of the additive (T. ba polymerase): PCR product was separated

CCCS(=O)(=O)O [propane sulfonate]
stabilization of dT4P-DDAO (% degradation) [1]: minimal
